2 compounds from US20080319065A1, “Systemic and Intrathecal Effects of a Novel Series of Phospholipase A2 Inhibitors on Hyperalgesia and Spinal Pge2 Release” (The Regents of the University of California, priority 2005, published 2008) can be followed below.

Data set [1] deals with T1, Group VIA iPLA2 (GVIA PLA2) (Homo sapiens, UniProt O60733).
T1 sequence (O60733 1-806): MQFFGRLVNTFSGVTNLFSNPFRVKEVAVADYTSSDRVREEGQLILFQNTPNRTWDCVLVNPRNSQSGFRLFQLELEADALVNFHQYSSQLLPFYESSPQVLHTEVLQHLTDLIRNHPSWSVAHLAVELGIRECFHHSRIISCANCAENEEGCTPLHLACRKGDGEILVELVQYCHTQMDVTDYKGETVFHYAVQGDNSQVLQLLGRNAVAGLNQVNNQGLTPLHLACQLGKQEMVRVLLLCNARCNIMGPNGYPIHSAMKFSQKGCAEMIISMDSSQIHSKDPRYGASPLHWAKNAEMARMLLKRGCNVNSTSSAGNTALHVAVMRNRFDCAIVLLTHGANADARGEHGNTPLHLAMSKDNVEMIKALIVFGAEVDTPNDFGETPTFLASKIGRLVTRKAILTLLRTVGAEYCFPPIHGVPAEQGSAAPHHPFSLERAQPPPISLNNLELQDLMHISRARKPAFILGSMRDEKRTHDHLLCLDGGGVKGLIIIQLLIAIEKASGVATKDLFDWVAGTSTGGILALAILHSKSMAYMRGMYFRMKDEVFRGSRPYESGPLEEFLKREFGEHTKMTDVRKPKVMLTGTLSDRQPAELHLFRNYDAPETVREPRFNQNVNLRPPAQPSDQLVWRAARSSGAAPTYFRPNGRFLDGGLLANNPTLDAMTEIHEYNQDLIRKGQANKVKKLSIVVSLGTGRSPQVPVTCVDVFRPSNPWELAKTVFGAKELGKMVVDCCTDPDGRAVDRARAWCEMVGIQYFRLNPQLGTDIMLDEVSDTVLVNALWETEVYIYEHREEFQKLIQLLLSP
Nature of the data set: In vitro Group VIA iPLA2 mixed micelle assay. The format is biochemical. The method, then:
(§1) Numerous 2-oxoamides were tested for inhibition of PLA2s in in vitro assay systems. The data, summarized in Tables 1a, 1b and 2 are represented as XI(50) values unless otherwise noted. XI(50) is defined as the inhibitor concentration that produced 50% inhibition. XI(50) is used as opposed to the more common IC50 because GIVA and GVIA PLA2 are active at a two-dimensional lipid interface rather than in three-dimensional solution. (Deems, Anal. Biochem., 287:1-16, 2000). The 2-oxoamide inhibitors likely partition to the micelle interface and therefore must be represented as a percentage of surface concentration (mole fraction) as opposed to bulk concentration (molar units). (Kokotos, et al., J. Med. Chem., 45:2891-2893, 2002).
(§2) In vitro Group IV cPLA2 and Group VI iPLA2 assays were done as previously described (Kokotos, et al., supra, 2002). Briefly, 100 μM lipid substrate and 100,000 cpm radiolabeled analog were dried down under N2 and dissolved in assay buffer containing 400 μM Triton X-100 to yield a mixed micelle substrate solution. Inhibitors dissolved in DMSO were added to the reaction tubes and allowed to incubate with substrate for five minutes at 40° C. Pure enzyme was added to yield a final volume of 500 μl, and digestion was carried out at 40° C. for 30 minutes. Reactions were quenched and extracted using the Dole method and products were quantified by liquid scintillation counting. Percent inhibition was determined at a range of inhibitor mole fraction concentrations for XI(50) calculations.

Another data set has as its target T2, GV sPLA2 (Homo sapiens, UniProt P39877).
T2 sequence (P39877 21-138): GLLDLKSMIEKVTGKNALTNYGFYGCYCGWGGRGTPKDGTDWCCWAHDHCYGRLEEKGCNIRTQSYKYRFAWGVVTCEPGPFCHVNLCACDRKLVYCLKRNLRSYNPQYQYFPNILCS
In words: GV sPLA2 activity assay. In kind it is biochemical. Conditions: at 0.091 mole fraction. On the procedure:
GV sPLA2 activity was measured in a similar assay. The final assay buffer was composed of 50 mM Tris-HCl (pH 8.0) and 5 mM CaCl2. Each assay was performed in 500 μL total volume made up of 100 μL of 5× substrate solution (20 μL of 10 mM Triton X-100 and 80 μL assay buffer), 390 μL assay buffer, 10 μL GV sPLA2 solution (1 μL of 40 ng/μL stock and 9 μL assay buffer), and 5 μL of DMSO or 2-oxoamide in DMSO. The 5× substrate solution was prepared by drying down the phospholipids (in organic solvent) with N2. The appropriate volume of 10 mM Triton X-100 was added, heated and vortexed until clear. Then assay buffer was added to make a 5× substrate solution. The final mixed micelles were at 400 μM Triton X-100 and 100 μM DPPC (of which 100,000 cpm of ^14C-DPPC).

The target in data set [2] is T3, Group IVA cPLA2 (GIVA PLA2) (Homo sapiens, UniProt P47712).
T3 sequence (P47712 1-749): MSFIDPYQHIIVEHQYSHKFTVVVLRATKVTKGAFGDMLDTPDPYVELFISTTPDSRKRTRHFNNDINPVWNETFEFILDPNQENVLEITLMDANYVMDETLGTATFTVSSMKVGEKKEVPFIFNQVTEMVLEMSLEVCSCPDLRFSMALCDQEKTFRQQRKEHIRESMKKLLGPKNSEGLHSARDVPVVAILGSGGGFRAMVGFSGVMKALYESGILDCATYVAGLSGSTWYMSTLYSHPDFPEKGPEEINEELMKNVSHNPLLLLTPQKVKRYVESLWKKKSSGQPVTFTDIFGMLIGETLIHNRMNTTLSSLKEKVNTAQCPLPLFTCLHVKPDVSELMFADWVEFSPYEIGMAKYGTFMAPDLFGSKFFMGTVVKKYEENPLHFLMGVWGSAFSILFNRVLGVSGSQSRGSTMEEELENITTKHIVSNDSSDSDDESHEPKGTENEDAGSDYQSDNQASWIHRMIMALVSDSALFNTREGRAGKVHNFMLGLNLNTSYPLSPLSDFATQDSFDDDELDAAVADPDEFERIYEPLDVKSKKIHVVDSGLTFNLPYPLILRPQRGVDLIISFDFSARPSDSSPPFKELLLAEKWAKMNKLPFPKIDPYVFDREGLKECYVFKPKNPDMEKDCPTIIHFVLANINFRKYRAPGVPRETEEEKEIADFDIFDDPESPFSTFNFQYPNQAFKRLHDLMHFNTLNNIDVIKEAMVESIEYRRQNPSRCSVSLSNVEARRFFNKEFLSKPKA
In words: In vitro Group IVA cPLA2 mixed micelle assay. In kind it is biochemical. On the procedure: as §1, §2

The test system of data set [3] is murine RAW 264.7 macrophage-like cell line. In words: Long-term LPS stimulation, PGE2 release. In kind it is cell-based. As to conditions: low μM range. The method, then:
Several 2-oxoamides were tested in the long-term lipopolysaccharide (LPS) stimulation pathway in the murine RAW 264.7 macrophage-like cell line. (Raschke, et al., Cell, 1978, 15, 261-267). This pathway requires GIVA PLA2 activity and results in the extracellular release of many eicosanoid compounds including the prostaglandin PGE2. (Gijon, et al., leukoc. Biol., 1999, 65, 330-336). […] In the low μM range, AX041 and AX073 reduced PGE2 release by roughly 40% (FIG. 1(D)). At 1 μM and 5 μM concentrations, small activations were often seen. The in vitro and cellular results together are consistent with the known roles of GVIA PLA2 given that AX010, a selective GVIA inhibitor, had no cellular effect. […] Inhibitors selective for GIVA PLA2 or dual specificity inhibitors reduce PGE2 levels, also consistent with the known role of GIVA PLA2 in PGE2 production.

In the next data set the target is T4, GVIA PLA2 (Homo sapiens, UniProt O60733).
T4 sequence (O60733 1-806): T1 sequence (O60733 1-806)
Nature of the data set: Time dependence and reversibility of GVIA PLA2 inhibition. In kind it is biochemical. On the procedure: GVIA PLA2 (25 ng) was preincubated with either AX010 or AX0073 (5 μM) for 0, 5, 15 or 30 minutes and then assayed in the standard GVIA PLA2 assay mix containing 5 μM inhibitor. The final concentration of the inhibitors in the assay mix was 0.01 mole fraction, and the samples were incubated for 30 minutes at 40° C. […] In the latter respect, 25 ng of GVIA PLA2 was pre-incubated with 10 μM AX010 or AX073 for 10 minutes before diluting the enzyme 1:50 into the standard GVIA PLA2 assay mix lacking inhibitor, and incubating for 30 minutes at 40° C. The final inhibitor concentration in these assays was 0.0004 mole fraction, well below surface concentrations that either AX010 or AX073 inhibit the enzyme.

The test system of another data set is COX-1 and COX-2 proteins. Nature of the data set: COX Activity Assay kit, in vitro cyclooxygenase activity. The format is biochemical. Conditions: 50 μM. On the procedure: Inhibitors dissolved in DMSO (study compounds) or ethanol (indomethacin) were added to 50 μM final concentration and allowed to incubate with the assay mixture including enzyme for 5 minutes. After addition of TMPD and arachidonic acid, samples were mixed and allowed to incubate 5 minutes at room temperature before reading absorbance at 595 nm to determine results. Results were calculated and percent inhibition values derived.

As a reminder, the melting point is the temperature of the solid-liquid transition. As to `CCCCCCCCCCCCCCC(=O)C(=O)NC(C=CC(=O)OC)CCCC` (centres unmarked) [AX073, 4-(2-Oxo-hexadecanoylamino)-oct-2-enoic acid methyl ester], the melting point lay within 48 to 50 °C. The “Inhibition of GVIA PLA2, XI(50)” value in data set [1] is on record as “XI(50) =0.032 ± 0.010 mole fraction”. Also, the “efficacy against sPLA2” value at GV sPLA2 came to 75.3%. Also, the “Inhibition of GIVA PLA2, XI(50)” value in data set [2] is recorded as “XI(50) =0.018 ± 0.010 mole fraction”. Further, the “reduction of PGE2 release” value in data set [3] was “roughly 40%”. Also, the “reversibility of GVIA PLA2 inhibition” value on GVIA PLA2 (pre-incubated with 10 μM for 10 minutes, diluted 1:50, final 0.0004 mole fraction) is “freely reversible inhibitors”. Moreover, the “time-dependent inhibition of GVIA PLA2” value on GVIA PLA2 (preincubated 0, 5, 15 or 30 minutes, 5 μM inhibitor, 0.01 mole fraction) is listed as “no increased potency with prolonged incubation”.

In the case of `COc1ccc2c(c1)c(CC(=O)O)c(C)n2C(=O)c1ccc(Cl)cc1` [indomethacin, reference compound], the “inhibition of cyclooxygenase activity” value in the data set with COX-1 and COX-2 proteins is given as “near complete inhibition”.
